Data: PMC8836143, “Primary Mode of Action of the Novel Sulfonamide Fungicide against Botrytis cinerea and Field Control Effect on Tomato Gray Mold” (International Journal of Molecular Sciences, 2022)
Converted amounts (≈) assume the structure as drawn.

Experiments:
B. cinerea = test system: B. cinerea; design: method as in PMID 18331796; conditions: cited from earlier work
B. cinerea mycelia = assay: mycelial electrolyte leakage (conductivity of mycelia suspension); assay type: cell-based, Botrytis cinerea; conditions: 50 μg/mL; for conductivity of mycelia suspension compared with control mycelia: all treatment times 0-100 h
Protocol: Mycelial discs (5 mm in diameter) of B. cinerea grown on PDA plates were cut from the colony’s margins and placed in PDA liquid medium with 200 r/min shaking for 3 days. The mycelia in the culture medium were collected and washed three times by sterile distilled water and subsequently, filtered and weighed. A stock solution of L13 and commercial fungicide procymidone as a positive control were diluted with sterile distilled water to 50 μg/mL, respectively. After adding 1.0 g of fresh mycelia into different solutions mentioned above, the conductivities of the solutions were measured using the DDS-11C model conductivity detector at 0, 1, 3, 5, 24, 28, 40, 48, 52, 64, 68, 72, 76, 88, 92, and 100 h after treatment. The experiment was repeated twice with three replicates per treatment.

[1] = test system: B. cinerea resistant to carbendazim (HM-1); assay: greenhouse pot test on tomato, carbendazim-resistant strain HM-1; assay type: in vivo, Botrytis cinerea
Protocol: (§1) The B. cinerea strains, which had resistance to carbendazim (HM-1), diethofencarb (HM-2), and iprodione (HM-3) for greenhouse pot studies, were provided by the Institute of Vegetables and Flowers, Chinese Academy of Agricultural Sciences (Beijing, China).
(§2) The experiments were conducted in the greenhouse of the Institute of Vegetables and Flowers, Chinese Academy of Agricultural Sciences. The maximum and minimum temperatures of the greenhouse were 29 °C and 19 °C, respectively, and the average temperature was 24 °C. B. cinerea strains showing resistance to carbendazim, diethofencarb, and iprodione were cultivated on potato dextrose agar (PDA) plates for 4–5 d at room temperature. Tomato seeds (Ziyu) were sown in ceramic pots (300 mm in diameter) containing 0.6 kg of soil sterilized with formaldehyde (4–5 seeds for each pot). When plants were grown to the five-leaf stage, an aqueous solution of 25% L13 WP (at dilution multiples of 1000 and 2000 times) was sprayed preventatively on the plant surface. […] The severity of the disease was assessed according to a nine-grade classification at 7 d after inoculation, by which time the disease in the untreated control had fully developed.

[2] = test system: B. cinerea resistant to iprodione (HM-3); assay: greenhouse pot test on tomato, iprodione-resistant strain HM-3; assay type: in vivo, Botrytis cinerea
Protocol: as §1, §2

[3] = test system: B. cinerea resistant to diethofencarb (HM-2); assay: greenhouse pot test on tomato, diethofencarb-resistant strain HM-2; assay type: in vivo, Botrytis cinerea
Protocol: as §1, §2

[4] = test system: intact mycelia of B. cinerea; assay: mycelial respiration (oxygen consumption of intact mycelia); assay type: cell-based, Botrytis cinerea; conditions: 25 °C; for R1 (mycelial oxygen uptake post addition of fungicide): R0 173.51; for inhibition at 50 µg/mL / inhibition at 100 µg/mL: Botrytis cinerea, read-out: IR (inhibition of respiration)
Protocol: Mycelial plugs of B. cinerea from 3 days old colony margins were transferred to conical flasks containing 150 mL of PDA liquid medium for shake culture (25 °C, 150 r/min). After 5 days, mycelia were washed three times with 50 mM potassium phosphate buffer (pH 7.2) and resuspended in 0.1 M phosphate buffer (pH 7.2), containing 2% glucose to afford mycelial suspension at a concentration of 50 mg fresh weight of mycelia per milliliter. The mycelial suspension was treated with 50 and 100 μg/mL of L13 and famoxadone, respectively. All measurements were carried out at 25 ± 1 °C. The ratio of the mycelial oxygen consumption was tested by oxygraphy (DW1, Hansatech Instruments Ltd., England), and the inhibition of respiration was calculated using the following formula:IR = (R0 − R1)/R0 × 100(1)
IR: inhibition of respiration (%); R0, R1: the ratio of mycelial oxygen uptake pre and post addition of fungicides (nmol O2/min/mg mycelia).

mutagenesis test = assay: mutagenesis test
Protocol: (§3) The acute oral and dermal toxicity test on Wistar rats, eye and skin irritation test on rabbits, and Ames mutagenicity test were commissioned by the Institute for the Control of Chemical Toxicity in Tianjin. The bone marrow cell micronucleus assay and testis chromosomal aberration test of mice were commissioned by Tianjin Center for Disease Control and Prevention. All the toxicological tests were carried out according to the Toxicological Test Methods for Pesticide Registration (GB 15670-1995).
(§4) Based on the preliminary experiment, Horn’s method was used to determine the acute oral toxicity of L13. The dosage applied for rats was 464, 1000, 2150, and 4640 mg/kg·BW. For the acute dermal toxicity test, the dosage applied for rats was 2000 mg/kg·BW. For the eye and skin irritation test, rabbits with bodyweight from 2.5 to 3.0 kg were used, and 0.1 and […] of L13 was applied to the eyes and skin, respectively. For the Ames mutagenicity test, 0.05–1.0 mg per dish of L13 was applied, and fenaminosulf (50 μg/dish), 2-aminofluorene (20 μg/dish), and 1,8-dihydroxyanthraquinone (50 μg/dish) were used as the positive controls. For the mouse bone marrow cell micronucleus assay, the dosages applied were 165, 82.5, 41.3, and 8.3 mg/kg·BW, and cyclophosphamide (60 mg/kg·BW) was used as a positive control. […]

rabbits [5] = assay: eye irritation test; assay type: in vivo
Protocol: as §3, §4

B. cinerea on tomatoes = assay: field efficacy trials against tomato gray mold; assay type: in vivo, Botrytis cinerea; conditions: Yuncheng city; 225 g ai ha^−1; over 2 years
Protocol: The field efficacy trials of L13 against tomato gray mold were conducted in two locations of Yuncheng, Shanxi Province, and Gaocheng, Hebei Province. The experiments were conducted according to the National Agriculture Industry Standard of “Pesticide-guidelines for the field efficacy trials (I)-Fungicides against gray mold of vegetables” [38]. Tomato Jinpeng No. 1 was used as the experimental cultivar. There were six treatments in each trial, and the area of each plot was 5 × 3 m with four replications (24 plots). When tomato plants were grown to the five-leaf stage, an aqueous solution of L13 50% WP at a rate of 450 and 225 g ai ha^−1 was sprayed onto the plants using a hydraulic knapsack electric sprayer (CD-16B, Chaoda Instrument Co., Ltd., Taizhou, China) with a single cone nozzle operating at a typical working pressure 0.3 MPa. Iprodione 50% WP, or iprodione 25% SC at a rate of 225 and 562.5 g ai ha^−1 were used as positive controls. Three applications were conducted at an interval of 7 d. The disease was assessed according to a nine-grade classification 7 d after the last application.

rabbits [6] = assay: skin irritation test; assay type: in vivo
Protocol: as §3, §4

B. cinerea hyphae = assay: SEM and TEM of mycelial morphology and ultrastructure; assay type: cell-based, Botrytis cinerea; conditions: 3 days
Protocol: B. cinerea mycelial tips (5 mm) from the margins of the actively growing colony on the PDA medium amended with 0, 50, and 100 μg/mL of L13 were cut down after being cultured for 3 days. Then the mycelial tips were treated with 4% glutaraldehyde at 4 °C, then rinsed with 0.1 M phosphate buffer (pH 7.3) and fixed with 1% w/v osmium tetraoxide solution. After being rinsed with 0.1 M phosphate buffer three times, the mycelium block was dehydrated using a series of acetone solutions in the order of concentration: 30%, 50%, 70%, 80%, 90%, and anhydrous acetone. The processes of drying at a critical point, mounting, and gold spraying were completed at last and examined in a scanning electron microscope (S-3400N, Hitachi, Nissei Sanyo, Tokyo, apan) with an accelerating voltage of 18–20 kV.
The mycelial blocks were prepared according to the method given in Section 2.3. After dehydrating and embedding in Epon 112, thin sections were cut and double-stained with uranyl acetate and lead citrate. The grids were examined with a JEOL-1230 (JEOL, Tokyo, Japan) transmission electron microscope.

Wistar rats = assay: acute oral toxicity; assay type: in vivo
Protocol: as §3, §4

[7] = test system: intact mycelia of B. cinerea; design: method as in earlier work; conditions: cited from earlier work
[8] = dilution multiple 1000, 187.5 g.ai ha^−1

For `CC12CC1(C)C(=O)N(c1cc(Cl)cc(Cl)c1)C2=O` (stereo not drawn) [procymidone, reference compound], the “EC50 against B. cinerea” value (B. cinerea) is given as 2.45 µg/mL (≈ 8.62 µM) and the “conductivity of mycelia suspension compared with control mycelia” value (B. cinerea mycelia) is given as “greatly increased”.
For `COC(=O)Nc1nc2ccccc2[nH]1` [carbendazim, reference compound], the “Control Effect” value ([1]; dilution multiple 500, 750 g.ai ha^−1) was 29.00%.
With `CC(C)NC(=O)N1CC(=O)N(c2cc(Cl)cc(Cl)c2)C1=O` [iprodione, reference compound] the “Control Effect” value ([2]; dilution multiple 1000, 375 g.ai ha^−1) was 2.36%.
For `CCOc1ccc(NC(=O)OC(C)C)cc1OCC` [diethofencarb, reference compound], the “Control Effect” value ([3]; dilution multiple 1400, 267.9 g.ai ha^−1) was 76.36%.
With `C[C@@]1(c2ccc(Oc3ccccc3)cc2)OC(=O)N(Nc2ccccc2)C1=O` (racemic) [Famoxadone, famoxadone, reference compound] the “R1 (mycelial oxygen uptake post addition of fungicide)” value ([4]; 50 μg/mL) was 115.99 nmol O2/g/min, the “R1 (mycelial oxygen uptake post addition of fungicide)” value ([4]; 100 μg/mL) was 68.79 nmol O2/g/min and the inhibition at 50 µg/mL ([4]; 50 μg/mL) was 33.2%. It also gave an inhibition at 100 µg/mL ([4]; 100 μg/mL) of 60.4%.
For `O=C1CCCCC1S(=O)(=O)Nc1ccc(Cl)cc1C(F)(F)F` (stereo not drawn) [L13, N-(2-trifluoromethyl-4-chlorphenyl)-2-oxocyclohexyl sulfonamide], the “EC50 against B. cinerea” value (B. cinerea) is listed as 2.12 µg/mL (≈ 5.96 µM), the “Control Effect” value [1, 8] is listed as 81.36% and the Mutagenesis (mutagenesis test) is listed as “Negative”. The “Control Effect” value [2, 8] was 78.27%, the “electrolyte leakage compared with positive control” value (B. cinerea mycelia) was “more significant electrolyte leakage from hyphae than procymidone” and the “conductivity of mycelia suspension compared with control mycelia” value (B. cinerea mycelia) was “greatly increased”. For the same compound, the Eye irritation (rabbits [5]) was “No irritation”, the “R1 (mycelial oxygen uptake post addition of fungicide)” value ([4]; 50 μg/mL) was 169.93 nmol O2/g/min and the “R1 (mycelial oxygen uptake post addition of fungicide)” value ([4]; 100 μg/mL) was 143.48 nmol O2/g/min. The inhibition at 50 µg/mL ([4]; 50 μg/mL) was 2.15%, the inhibition at 100 µg/mL ([4]; 100 μg/mL) was 17.4% and the Carcinogenesis (carcinogenesis test) was “Negative”. For the same compound, the “control effect against B. cinerea on tomatoes” value (B. cinerea on tomatoes) was 72–76%, the Skin irritation (rabbits [6]) was “No irritation” and the “TEM ultrastructure of hyphae” value (B. cinerea hyphae; PDA with 50 μg/mL) was “cell wall exhibited a decomposition trend”. For the same compound, the “TEM ultrastructure of hyphae” value (B. cinerea hyphae; PDA with 100 μg/mL) was “cell wall decomposition”, the “Acute oral LD50” value (Wistar rats; female) was 2150 mg/kg·BW and the “Acute oral LD50” value (Wistar rats; male) was 1470 mg/kg·BW. The Teratogenesis (teratogenesis test) was “Negative”, the “Control Effect” value [3, 8] was 92.61% and the “content of DNA and polysaccharide in intact mycelia” value [7] was “reduce the content of the DNA and polysaccharide”.
